One molecule from article PMC4579270, “Identification and Characterization of an Irreversible Inhibitor of CDK2” (Chemistry & Biology, 2015) can be followed below.

One test has as its system AMPK (hum). Kind of test: Dundee kinase screen re-test (standard format and 4 hour pre-incubation). In kind it is biochemical, human. The protocol: (§1) Prior to determining its cellular activity, we carried out a screen to assess its selectivity against a panel of 131 protein kinases under conditions that would not distinguish between a reversible or irreversible mode of action. […] These 13 kinases and 29 additional kinases, selected for their known sensitivity to other inhibitors within the purine series, were then tested in a modified screening format in which the assay was repeated following a 4-hr pre-incubation (Table S3B). […] However, conformational flexibility around the active site may promote such an interaction with a residue from another part of the structure ([Martin et al., 2012]).
Table S3, Related to Figure 4. NCL-0006300 protein kinase selectivity. […]
Dundee protein kinase screen (Bain et al., 2007). […]
(B) Selected kinases were re-tested in the Dundee kinase screen against NU6300 at a single concentration of 0.5 µM both in the standard assay format and following a 4 hour pre-incubation in the presence of NU6300. Kinases which have very low activity after the 4 hour incubation so that results might not be wholly reliable are boxed in salmon. Kinases where the activity after a 4 hour pre-incubation is < 50% that in the standard assay format are highlighted in red.

The next test deals with T1, CDK2^K89V (Homo sapiens, UniProt P24941, K89V).
T1 construct: GST (N, cleaved yes); made in house; host or cells: Escherichia coli; phosphorylated in vitro by GST-CAK
As to the kind of experiment: ESI-MS of covalent adduct, mutant. The conditions noted are these: CDK2^K89V/cyclin A, overnight incubation. The method, then: (§2) These residues were individually mutated to an alanine, glutamate, or valine, respectively, and the resulting mutant CDK2/cyclin A complexes were analyzed by ESI-MS following overnight incubation with either NU6300 (exact mass 413.15) or DMSO (Figure S2 and Table S1).
(§3) Figure S2, Related to Figure 3. Identification of the site of CDK2 modification by NU6300. (A-G) Single site CDK2 mutants CDK2D86A, CDK2K88E, and CDK2K89V identify the site of CDK2 modification by NU6300. These mutations change the CDK2 sequence to that of CDK7 and are known not to disrupt the CDK2 fold. Mass spectra of CDK2 mutants:
(§4) (A), (D), CDK2D86A/cyclin A; (B), (E), CDK2K88E/cyclin A; (C), (F), CDK2K89V/cyclin A (3 mg/mL) pre-incubated overnight in the absence/presence of NU6300. (A-C), positive controls, CDK2/cyclin A mutants assayed in the absence of NU6300; (D-F), CDK2/cyclin A mutants pre-incubated with NU6300. For each mutant, the experimentally determined and […]
(§5) (G) Protein kinase activity of authentic CDK2 and single site CDK2 mutants following incubation with NU6300 or NU6310. Samples were taken at the indicated number of minutes after initiation of the reaction. Note that compared to authentic CDK2, the single site Lys88 and Lys89 mutants have a slower rate of reaction (Compare LHS panels). […]

A further test deals with T2, CDK2^D86A (Homo sapiens, UniProt P24941, D86A).
T2 construct: GST (N, cleaved yes); made in house; host or cells: Escherichia coli; phosphorylated in vitro by GST-CAK
As to the kind of experiment: ESI-MS of covalent adduct, mutant. As to conditions: CDK2^D86A/cyclin A, overnight incubation. The protocol:
as §2, §3, §4, §5

In a further test the target is PIM2 (Homo sapiens, UniProt Q9P1W9). Kind of test: Dundee protein kinase screen. In kind it is biochemical. The conditions noted are these: PIM2, 1µM; read-out: %Remaining activity at 1µM NU6300. The method, then: as §1
Chain of PIM2 (Q9P1W9 whole entry): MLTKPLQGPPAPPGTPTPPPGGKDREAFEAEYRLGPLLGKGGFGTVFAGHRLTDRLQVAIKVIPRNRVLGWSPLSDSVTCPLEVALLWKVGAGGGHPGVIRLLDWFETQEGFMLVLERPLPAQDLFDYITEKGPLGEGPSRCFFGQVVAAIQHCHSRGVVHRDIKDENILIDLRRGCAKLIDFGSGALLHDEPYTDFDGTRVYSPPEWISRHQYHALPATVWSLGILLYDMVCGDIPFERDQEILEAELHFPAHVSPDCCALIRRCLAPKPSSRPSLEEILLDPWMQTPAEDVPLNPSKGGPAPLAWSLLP
(§6) Table S3, Related to Figure 4. NCL-0006300 protein kinase selectivity. (A) NU6300 was tested at a single concentration of 1µM against 131 protein kinases present in a Dundee protein kinase screen (Bain et al., 2007). Values given are % activity remaining and are the average of duplicate measurements: 0-25% (red), 26-50% (yellow), 51-80% […]
(§7) (black) and above 81% (green). […]

A further test addresses SRPK1 (Homo sapiens, UniProt Q96SB4). Kind of test: Dundee protein kinase screen. In kind it is biochemical. The conditions noted are these: SRPK1, 1µM; read-out: %Remaining activity at 1µM NU6300. The protocol: as §1, §6, §7
In a further test the target is PKBβ (Homo sapiens, UniProt P31751). As to the kind of experiment: Dundee protein kinase screen. As to conditions: read-out: %Remaining activity at 1µM NU6300. Format: biochemical. The protocol: as §1, §6, §7
Chain of PKBβ (P31751 whole entry): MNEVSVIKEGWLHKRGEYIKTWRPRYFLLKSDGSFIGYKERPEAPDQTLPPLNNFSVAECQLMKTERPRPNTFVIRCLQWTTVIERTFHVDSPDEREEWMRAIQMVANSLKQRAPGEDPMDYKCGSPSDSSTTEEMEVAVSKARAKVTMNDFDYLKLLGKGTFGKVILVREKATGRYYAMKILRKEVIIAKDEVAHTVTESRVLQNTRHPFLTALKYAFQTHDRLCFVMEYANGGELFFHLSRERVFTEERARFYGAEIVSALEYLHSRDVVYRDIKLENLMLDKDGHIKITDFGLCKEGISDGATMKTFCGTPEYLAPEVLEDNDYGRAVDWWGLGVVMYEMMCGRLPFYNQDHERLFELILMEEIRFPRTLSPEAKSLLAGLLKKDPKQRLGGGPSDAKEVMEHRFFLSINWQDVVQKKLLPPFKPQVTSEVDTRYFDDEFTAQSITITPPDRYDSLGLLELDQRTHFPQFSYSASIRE
The next test has as its target WNK1 (Homo sapiens, UniProt Q9H4A3). As to the kind of experiment: Dundee protein kinase screen. Format: biochemical. The conditions noted are these: WNK1, 1µM; read-out: %Remaining activity at 1µM NU6300. The method, then: as §1, §6, §7

Chain of WNK1 (Q9H4A3 whole entry): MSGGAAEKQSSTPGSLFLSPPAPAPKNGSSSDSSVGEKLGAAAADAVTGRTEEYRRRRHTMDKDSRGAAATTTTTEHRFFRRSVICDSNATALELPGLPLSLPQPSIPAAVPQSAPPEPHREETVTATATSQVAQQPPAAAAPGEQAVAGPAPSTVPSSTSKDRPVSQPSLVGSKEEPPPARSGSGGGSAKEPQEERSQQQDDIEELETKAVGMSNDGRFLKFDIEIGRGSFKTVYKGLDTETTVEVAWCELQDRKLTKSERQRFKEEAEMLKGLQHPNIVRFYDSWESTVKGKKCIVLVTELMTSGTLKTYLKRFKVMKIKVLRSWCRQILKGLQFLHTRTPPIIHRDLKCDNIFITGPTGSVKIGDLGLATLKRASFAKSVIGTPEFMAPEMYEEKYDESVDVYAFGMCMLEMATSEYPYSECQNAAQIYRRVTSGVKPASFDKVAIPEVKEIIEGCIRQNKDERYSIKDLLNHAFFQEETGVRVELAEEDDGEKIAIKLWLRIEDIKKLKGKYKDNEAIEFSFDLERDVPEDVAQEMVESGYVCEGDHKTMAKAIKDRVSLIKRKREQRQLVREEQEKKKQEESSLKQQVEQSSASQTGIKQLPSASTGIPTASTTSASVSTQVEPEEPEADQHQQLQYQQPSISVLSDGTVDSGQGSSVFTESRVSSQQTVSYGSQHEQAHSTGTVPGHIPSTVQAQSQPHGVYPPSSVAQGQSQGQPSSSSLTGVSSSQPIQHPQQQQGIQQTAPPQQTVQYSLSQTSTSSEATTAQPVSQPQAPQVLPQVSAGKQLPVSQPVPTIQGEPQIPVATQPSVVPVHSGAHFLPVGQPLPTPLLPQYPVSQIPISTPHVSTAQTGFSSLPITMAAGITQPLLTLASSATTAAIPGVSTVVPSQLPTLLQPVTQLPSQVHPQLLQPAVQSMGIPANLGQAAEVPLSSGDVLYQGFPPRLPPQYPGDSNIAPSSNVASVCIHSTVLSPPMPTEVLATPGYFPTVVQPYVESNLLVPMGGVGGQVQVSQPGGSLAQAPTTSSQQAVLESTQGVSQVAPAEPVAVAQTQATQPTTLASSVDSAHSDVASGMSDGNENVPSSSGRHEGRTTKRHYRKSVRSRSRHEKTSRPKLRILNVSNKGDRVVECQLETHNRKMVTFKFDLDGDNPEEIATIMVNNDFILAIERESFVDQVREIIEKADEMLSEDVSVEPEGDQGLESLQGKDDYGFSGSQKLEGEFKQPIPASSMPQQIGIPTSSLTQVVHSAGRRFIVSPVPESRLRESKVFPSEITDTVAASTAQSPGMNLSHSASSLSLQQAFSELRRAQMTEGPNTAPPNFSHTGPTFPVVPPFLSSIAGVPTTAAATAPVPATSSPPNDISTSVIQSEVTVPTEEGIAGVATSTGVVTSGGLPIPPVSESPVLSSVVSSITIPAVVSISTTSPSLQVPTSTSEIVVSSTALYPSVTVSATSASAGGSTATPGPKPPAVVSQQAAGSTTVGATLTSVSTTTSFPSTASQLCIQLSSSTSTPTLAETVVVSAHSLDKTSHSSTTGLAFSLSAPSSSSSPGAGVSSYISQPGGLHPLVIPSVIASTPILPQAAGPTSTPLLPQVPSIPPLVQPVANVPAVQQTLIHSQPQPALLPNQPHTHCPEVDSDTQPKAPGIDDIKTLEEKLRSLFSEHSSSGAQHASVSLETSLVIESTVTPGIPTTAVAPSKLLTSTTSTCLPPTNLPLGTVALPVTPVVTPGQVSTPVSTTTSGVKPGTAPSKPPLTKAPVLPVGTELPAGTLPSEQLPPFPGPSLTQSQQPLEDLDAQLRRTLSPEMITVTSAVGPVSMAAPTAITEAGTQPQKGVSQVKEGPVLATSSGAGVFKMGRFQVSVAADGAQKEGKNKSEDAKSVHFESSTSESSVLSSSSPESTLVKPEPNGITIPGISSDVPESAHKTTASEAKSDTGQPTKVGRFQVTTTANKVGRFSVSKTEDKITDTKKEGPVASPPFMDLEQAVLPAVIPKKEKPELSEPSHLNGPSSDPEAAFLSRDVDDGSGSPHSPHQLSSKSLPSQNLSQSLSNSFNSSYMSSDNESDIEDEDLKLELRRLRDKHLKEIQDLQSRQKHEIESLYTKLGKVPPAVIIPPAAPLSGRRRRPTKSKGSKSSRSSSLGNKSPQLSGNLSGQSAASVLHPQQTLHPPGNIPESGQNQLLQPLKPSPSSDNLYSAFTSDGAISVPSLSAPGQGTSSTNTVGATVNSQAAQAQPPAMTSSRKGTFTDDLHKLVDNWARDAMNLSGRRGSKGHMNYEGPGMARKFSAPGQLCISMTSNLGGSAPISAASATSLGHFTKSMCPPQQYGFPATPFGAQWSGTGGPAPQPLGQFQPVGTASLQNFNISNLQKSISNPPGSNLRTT
Chain of SRPK1 (Q96SB4 whole entry): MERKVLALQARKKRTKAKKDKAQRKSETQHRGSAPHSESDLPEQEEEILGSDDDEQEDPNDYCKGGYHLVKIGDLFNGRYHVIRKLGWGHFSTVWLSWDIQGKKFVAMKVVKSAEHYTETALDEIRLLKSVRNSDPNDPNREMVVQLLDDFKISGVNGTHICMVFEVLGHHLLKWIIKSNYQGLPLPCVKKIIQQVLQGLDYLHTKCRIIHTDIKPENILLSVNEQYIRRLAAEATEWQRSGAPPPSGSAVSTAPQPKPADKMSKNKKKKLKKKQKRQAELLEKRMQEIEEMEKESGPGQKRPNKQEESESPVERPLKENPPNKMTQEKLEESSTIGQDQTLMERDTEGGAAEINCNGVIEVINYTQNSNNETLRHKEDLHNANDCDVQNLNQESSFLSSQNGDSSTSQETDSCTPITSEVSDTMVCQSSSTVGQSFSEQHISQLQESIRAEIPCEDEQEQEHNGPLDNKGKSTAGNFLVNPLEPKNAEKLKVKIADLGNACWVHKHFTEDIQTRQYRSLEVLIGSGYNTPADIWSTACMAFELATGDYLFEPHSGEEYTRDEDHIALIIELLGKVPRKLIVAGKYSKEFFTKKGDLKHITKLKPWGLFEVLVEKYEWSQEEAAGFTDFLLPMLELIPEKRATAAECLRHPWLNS

In general, remaining activity refers to the signal under treatment as a percentage of the control signal. For the molecule `C=CS(=O)(=O)c1ccc(Nc2nc(OCC3CCCCC3)c3nc[nH]c3n2)cc1` [NU6300, 6-(cyclohexylmethoxy)-N-(4-(vinylsulfonyl)phenyl)-9H-purin-2-amine], in the test on AMPK (hum) (4hr RT preincubation), the “%Remaining activity at 0.5µM NU6300 - 4hr RT preincubation” value was found to be 73%. Besides, in the test on AMPK (hum) (usual format), the “%Remaining activity at 0.5µM NU6300 - Usual assay format” value was 70%. Also, the “mass added to major CDK2 species (ESI-MS)” value is “no additional mass” on CDK2^K89V and 414 Da at CDK2^D86A. For the same molecule, the remaining activity at 1 µM is 96% on PIM2, 71% at SRPK1, 89% on PKBβ and 103% at WNK1.
